# Experimental data as given in ChEMBL document CHEMBL1201862, “PubChem BioAssay data set” (2004).
#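 1) Cells in 96-well plates. 2) Compound, 48 h, 5 concentrations. 3) Linear interpolation between surrounding doses. 4) Unreached endpoint = highest concentration. At the GI50, growth is halved.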 Active and inactive are the calls of the source. No stated cut-off is given here; in the data, active = GI50 up to about 1.1 µM and inactive = higher.
# Legend:
# Assay in all cases: NCI-60 cell line screen, 48 h
# NCI/ADR-RES = tested on: NCI/ADR-RES
# EKVX = tested on: EKVX
# NCI-H23 = tested on: NCI-H23
# SR = tested on: SR
# Malme-3M = tested on: Malme-3M
# RPMI-8226 = tested on: RPMI-8226
# SK-MEL-5 = tested on: SK-MEL-5
# SNB-75 = tested on: SNB-75
# CAKI-1 = tested on: CAKI-1
# OVCAR-3 = tested on: OVCAR-3
# A549 = tested on: A549
# K562 = tested on: K562
# M14 = tested on: M14
# 786-0 = tested on: 786-0
# SK-MEL-28 = tested on: SK-MEL-28
# MDA-MB-435 = tested on: MDA-MB-435
# NCI-H460 = tested on: NCI-H460
# T47D = tested on: T47D
# LOX IMVI = tested on: LOX IMVI
# NCI-H522 = tested on: NCI-H522
# HOP-92 = tested on: HOP-92
# HT-29 = tested on: HT-29
# COLO 205 = tested on: COLO 205
# HCC 2998 = tested on: HCC 2998
# IGROV-1 = tested on: IGROV-1
# HCT-116 = tested on: HCT-116
# OVCAR-8 = tested on: OVCAR-8
# MOLT-4 = tested on: MOLT-4
# ACHN = tested on: ACHN
# DU-145 = tested on: DU-145
# SK-MEL-2 = tested on: SK-MEL-2
# SF-268 = tested on: SF-268
# OVCAR-4 = tested on: OVCAR-4
# MCF7 = tested on: MCF7
# HOP-62 = tested on: HOP-62
# HL-60 = tested on: HL-60
# SF-295 = tested on: SF-295
# CCRF-CEM = tested on: CCRF-CEM
# Hs-578T = tested on: Hs-578T
# UO-31 = tested on: UO-31
# UACC-62 = tested on: UACC-62
# RXF 393 = tested on: RXF 393
# KM12 = tested on: KM12
# SK-OV-3 = tested on: SK-OV-3
# PC-3 = tested on: PC-3
# UACC-257 = tested on: UACC-257
# TK-10 = tested on: TK-10
# U-251 = tested on: U-251
# MDA-N = tested on: MDA-N
# SW-620 = tested on: SW-620
# A498 = tested on: A498
# HCT-15 = tested on: HCT-15
# OVCAR-5 = tested on: OVCAR-5
# SNB-19 = tested on: SNB-19
# SF-539 = tested on: SF-539
# SN12C = tested on: SN12C
# MDA-MB-231 = tested on: MDA-MB-231
smiles,measurement,setting,value
CN1CCN(c2nc3ccccc3nc2C(=O)c2ccc(Cl)cc2)CC1,GI50,NCI/ADR-RES,54.5 µM (inactive)
same,GI50,EKVX,86.3 µM (inactive)
same,GI50,NCI-H23,49.4 µM (inactive)
same,GI50,SR,47.4 µM (inactive)
same,GI50,Malme-3M,16.7 µM (inactive)
same,GI50,RPMI-8226,22.2 µM (inactive)
same,GI50,SK-MEL-5,14.5 µM (inactive)
same,GI50,SNB-75,> 100 µM (inactive)
same,GI50,CAKI-1,40.4 µM (inactive)
same,GI50,OVCAR-3,44 µM (inactive)
same,GI50,A549,54.2 µM (inactive)
same,GI50,K562,40.8 µM (inactive)
same,GI50,M14,22.2 µM (inactive)
same,GI50,786-0,33.1 µM (inactive)
same,GI50,SK-MEL-28,50.7 µM (inactive)
same,GI50,MDA-MB-435,44.5 µM (inactive)
same,GI50,NCI-H460,27.1 µM (inactive)
same,GI50,T47D,45.6 µM (inactive)
same,GI50,LOX IMVI,40.6 µM (inactive)
same,GI50,NCI-H522,38.1 µM (inactive)
same,GI50,HOP-92,26.5 µM (inactive)
same,GI50,HT-29,38.2 µM (inactive)
same,GI50,COLO 205,35.8 µM (inactive)
same,GI50,HCC 2998,33.7 µM (inactive)
same,GI50,IGROV-1,83.6 µM (inactive)
same,GI50,HCT-116,35.2 µM (inactive)
same,GI50,OVCAR-8,69 µM (inactive)
same,GI50,MOLT-4,65 µM (inactive)
same,GI50,ACHN,> 100 µM (inactive)
same,GI50,DU-145,> 100 µM (inactive)
same,GI50,SK-MEL-2,58.5 µM (inactive)
same,GI50,SF-268,46.9 µM (inactive)
same,GI50,OVCAR-4,58.6 µM (inactive)
same,GI50,MCF7,27.7 µM (inactive)
same,GI50,HOP-62,59.4 µM (inactive)
same,GI50,HL-60,31 µM (inactive)
same,GI50,SF-295,36.3 µM (inactive)
same,GI50,CCRF-CEM,48.6 µM (inactive)
same,GI50,Hs-578T,56.2 µM (inactive)
same,GI50,UO-31,31 µM (inactive)
same,GI50,UACC-62,28.5 µM (inactive)
same,GI50,RXF 393,24.5 µM (inactive)
same,GI50,KM12,35.1 µM (inactive)
same,GI50,SK-OV-3,> 100 µM (inactive)
same,GI50,PC-3,51.2 µM (inactive)
same,GI50,UACC-257,36.1 µM (inactive)
same,GI50,TK-10,35.6 µM (inactive)
same,GI50,U-251,57.1 µM (inactive)
same,GI50,MDA-N,36.9 µM (inactive)
same,GI50,SW-620,61 µM (inactive)
same,GI50,A498,41.7 µM (inactive)
same,GI50,HCT-15,55.6 µM
same,GI50,OVCAR-5,> 100 µM (inactive)
same,GI50,SNB-19,> 100 µM (inactive)
same,GI50,SF-539,69.2 µM (inactive)
CO[C@]12CC(=O)C3(C(C[C@H]4CC5CC=C6C[C@@H](OC(C)=O)CC[C@]6(OC(C)=O)C5C[C@@]43C)C1)C1C[C@H]3[C@@H]4CC=C5C[C@@H](OC(C)=O)CC[C@]5(OC(C)=O)[C@H]4CC[C@]3(C)C12 (stereo partly specified),GI50,NCI/ADR-RES,14 µM (inactive)
same,GI50,EKVX,21.4 µM (inactive)
same,GI50,NCI-H23,15.6 µM (inactive)
same,GI50,SR,5.66 µM (inactive)
same,GI50,Malme-3M,18.5 µM (inactive)
same,GI50,RPMI-8226,7.18 µM (inactive)
same,GI50,SK-MEL-5,3.53 µM (inactive)
same,GI50,SNB-75,36.7 µM (inactive)
same,GI50,CAKI-1,19.2 µM (inactive)
same,GI50,OVCAR-3,19.7 µM (inactive)
same,GI50,A549,21.9 µM (inactive)
same,GI50,K562,8.85 µM (inactive)
same,GI50,M14,17.5 µM (inactive)
same,GI50,786-0,19.8 µM (inactive)
same,GI50,SK-MEL-28,30 µM (inactive)
same,GI50,MDA-MB-435,18.8 µM (inactive)
same,GI50,NCI-H460,16.3 µM (inactive)
same,GI50,T47D,10.9 µM (inactive)
same,GI50,LOX IMVI,18.9 µM (inactive)
same,GI50,NCI-H522,14 µM (inactive)
same,GI50,HOP-92,18.7 µM (inactive)
same,GI50,HT-29,16.1 µM (inactive)
same,GI50,COLO 205,3.1 µM (inactive)
same,GI50,HCC 2998,17.8 µM (inactive)
same,GI50,IGROV-1,20.1 µM (inactive)
same,GI50,HCT-116,6.55 µM (inactive)
same,GI50,SN12C,14.6 µM (inactive)
same,GI50,OVCAR-8,24.1 µM (inactive)
same,GI50,MOLT-4,5.58 µM (inactive)
same,GI50,ACHN,22.9 µM (inactive)
same,GI50,DU-145,16.5 µM (inactive)
same,GI50,SK-MEL-2,18.1 µM (inactive)
same,GI50,SF-268,56.9 µM (inactive)
same,GI50,OVCAR-4,4.5 µM (inactive)
same,GI50,MDA-MB-231,14.8 µM (inactive)
same,GI50,MCF7,17.3 µM (inactive)
same,GI50,HOP-62,18.8 µM (inactive)
same,GI50,HL-60,14.9 µM (inactive)
same,GI50,SF-295,13.9 µM (inactive)
same,GI50,CCRF-CEM,74 µM (inactive)
same,GI50,Hs-578T,32.2 µM (inactive)
same,GI50,UO-31,16.1 µM (inactive)
same,GI50,UACC-62,20.4 µM (inactive)
same,GI50,KM12,11.4 µM (inactive)
same,GI50,SK-OV-3,62.1 µM (inactive)
same,GI50,PC-3,10.7 µM (inactive)
same,GI50,UACC-257,23.6 µM (inactive)
same,GI50,TK-10,43.2 µM (inactive)
same,GI50,U-251,17.5 µM (inactive)
same,GI50,MDA-N,13.1 µM (inactive)
same,GI50,SW-620,41 µM (inactive)
same,GI50,A498,27.2 µM (inactive)
same,GI50,HCT-15,21.6 µM
same,GI50,OVCAR-5,21.7 µM (inactive)
same,GI50,SNB-19,13.9 µM (inactive)
same,GI50,SF-539,19.6 µM (inactive)
